Reference: US20080194585A1, “Fungicidal Pyrazine Derivatives” (priority 2005, published 2008)
Marks after values point to notes of the source that are not given here.

Assays:
Septoria tritici = experiment: Test J: wheat leaf blotch, preventive spray on wheat seedlings; type: in vivo
Text: A dash (-) indicates no test results.

[1] = system: Colletotrichum orbiculare; experiment: Test B: cucumber Colletotrichum anthracnose, preventive spray on cucumber seedlings
Pythium aphanidermatum = experiment: Test A: bluegrass pythium blight, preventive spray on bluegrass seedlings; conditions: 200 ppm
Plasmopara viticola = experiment: Test D: grape downy mildew, spray after inoculation of grape seedlings; type: in vivo; conditions: 200 ppm
Text: Upon removal, disease ratings were made. […] A dash (-) indicates no test results.

Phytophthora infestans = experiment: whole plant or invertebrate; type: in vivo; conditions: 200 ppm
Botrytis cinerea = experiment: Test E: tomato botrytis, preventive spray on tomato seedlings
[2] = system: Puccinia recondita f. sp. tritici; experiment: Test K: wheat leaf rust, preventive spray on wheat seedlings
fusarium graminearium = experiment: Test I: wheat head scab, preventive spray on wheat seedlings; conditions: 200 ppm
Experimental: (the causal agent of wheat head scab) and incubated in a saturated atmosphere at 20° C. for 72 h, and then moved to a growth chamber at 22° C. for 5 days, after which disease ratings were made.

Septoria nodorum = experiment: Test H: wheat glum blotch, preventive spray on wheat seedlings
Experimental: (the causal agent of wheat glum blotch) and incubated in a saturated atmosphere at 20° C. for 48 h, and then moved to a growth chamber at 22° C. for 5 days, after which disease ratings were made.

Rhizoctonia oryzae = experiment: Test G: turf brown patch, preventive spray on creeping bent grass seedlings
Experimental: (the causal agent of turf brown patch) and incubated in a saturated atmosphere at 27° C. for 24 h, and then moved to a growth chamber at 27° C. for 5 days, after which disease ratings were made.

[3] = system: Erysiphe graminis f. sp. tritici; experiment: Test L: wheat powdery mildew, preventive spray on wheat seedlings
Sclerotinia sclerotiorum = experiment: Test C: cucumber white mold, preventive spray on cucumber seedlings; conditions: 200 ppm

SMILES	Test J disease control rating (Septoria tritici; 200 ppm) [%]	Test B disease control rating ([1]; 200 ppm) [%]	Test A disease control rating (Pythium aphanidermatum) [%]	Test D disease control rating (Plasmopara viticola) [%]	Test F disease control rating (Phytophthora infestans) [%]	Test E disease control rating (Botrytis cinerea; 200 ppm) [%]	Test K disease control rating ([2]; 200 ppm) [%]	Test I disease control rating (fusarium graminearium) [%]	Test H disease control rating (Septoria nodorum; 200 ppm) [%]	Test G disease control rating (Rhizoctonia oryzae; 200 ppm) [%]	Test L disease control rating ([3]; 200 ppm) [%]	Test C disease control rating (Sclerotinia sclerotiorum) [%]	Test J disease control rating (Septoria tritici; 40 ppm (*))	Test B disease control rating ([1]; 40 ppm (*))	Test E disease control rating (Botrytis cinerea; 40 ppm (*))	Test K disease control rating ([2]; 40 ppm (*))	Test H disease control rating (Septoria nodorum; 40 ppm (*))	Test G disease control rating (Rhizoctonia oryzae; 40 ppm (*))	Test L disease control rating ([3]; 40 ppm (*))
CC(C)Cn1c(-c2c(F)cccc2C(F)(F)F)c(Cl)nc(-n2cccn2)c1=O [compound 87]	74	100	0	0	0	100	100	18	100	99	100	95	–	–	–	–	–	–	–
CC(C)Cn1c(-c2ccc3c(c2)OCO3)c(Cl)nc(-n2cccn2)c1=O [compound 88]	100	52	0	0	24	100	97	0	99	16	0	99	–	–	–	–	–	–	–
O=c1c(-n2cccn2)nc(Cl)c(-c2c(F)cccc2F)n1CC1CCCO1 (stereo not drawn) [compound 91]	–	–	0	0	0	–	–	0	–	–	–	0	93* %	0* %	92* %	0* %	33* %	0* %	0* %
O=c1c(-n2cncn2)nc(Cl)c(-c2c(F)cccc2F)n1CC1CCCO1 (stereo not drawn) [compound 92]	–	–	0	0	0	–	–	0	–	–	–	0	7* %	0* %	0* %	0* %	0* %	0* %	0* %
COCC(C)n1c(-c2c(F)cccc2F)c(Cl)nc(-n2cccn2)c1=O (stereo not drawn) [compound 93]	–	–	0	0	60	–	–	0	–	–	–	0	83* %	0* %	79* %	98* %	96* %	70* %	97* %
COCC(C)n1c(-c2c(F)cccc2F)c(Cl)nc(-n2cncn2)c1=O (stereo not drawn) [compound 94]	–	–	0	0	0	–	–	0	–	–	–	0	14* %	0* %	0* %	0* %	0* %	0* %	0* %
COCCn1c(-c2c(F)cccc2F)c(Cl)nc(-n2cncn2)c1=O [compound 96]	–	–	0	0	0	–	–	0	–	–	–	0	0* %	0* %	0* %	0* %	0* %	0* %	0* %
CSCCn1c(-c2c(F)cccc2F)c(Cl)nc(-n2cccn2)c1=O [compound 97]	–	–	0	64	0	–	–	0	–	–	–	0	24* %	0* %	100* %	0* %	0* %	0* %	0* %
CSCCn1c(-c2c(F)cccc2F)c(Cl)nc(-n2cncn2)c1=O [compound 98]	–	–	0	0	0	–	–	0	–	–	–	0	26* %	0* %	0* %	0* %	0* %	0* %	0* %
O=c1c(-n2cccn2)nc(Cl)c(-c2c(F)cccc2F)n1Cc1ccccc1 [compound 104]	100	100	0	9	0	100	100	0	100	95	100	0	–	–	–	–	–	–	–
COc1cc(OC)c(-c2c(Cl)nc(-n3cncn3)c(=O)n2CC(C)C)c(OC)c1 [compound 112]	–	–	0	0	0	–	–	57	–	–	–	0	0* %	0* %	0* %	0* %	0* %	0* %	0* %
CC(C)Cn1c(-c2c(F)cccc2C(F)(F)F)c(Cl)nc(-n2cncn2)c1=O [compound 113]	–	–	0	0	0	–	–	98	–	–	–	93	2* %	0* %	0* %	0* %	0* %	26* %	0* %
CC(C)Cn1c(-c2ccc3c(c2)OCO3)c(Cl)nc(-n2cncn2)c1=O [compound 114]	–	–	0	0	0	–	–	0	–	–	–	0	89* %	0* %	97* %	0* %	99* %	0* %	0* %
